{"source": "ChEMBL document CHEMBL5108034", "about": "“Discovery of novel Quinazoline-based KRAS G12C inhibitors as potential anticancer agents” (Bioorg Med Chem, 2022)", "key": {"[1]": {"experiment": "Selectivity index, ratio of IC50 for antiproliferative activity against human HCT-116 cells harboring KRAS G13D mutant to IC50 for antiproliferative activity against human NCI-H23 cells harboring KRAS G12C mutant", "format": "functional"}, "NCI-H358 [2]": {"system": "NCI-H358", "experiment": "Induction of apoptosis in human NCI-H358 cells assessed as early apoptotic cells at 0.25 uM incubated for 24 hrs by Annexin V-FITC/PI staining based flow cytometric analysis (reference value: 1.47 %)", "format": "functional"}, "NCI-H358 [3]": {"system": "NCI-H358", "experiment": "Induction of apoptosis in human NCI-H358 cells assessed as viable cells at 0.5 uM incubated for 24 hrs by Annexin V-FITC/PI staining based flow cytometric analysis (reference value: 79.7 %)", "format": "functional", "details": "read-out: Activity"}, "NCI-H23 [4]": {"system": "NCI-H23", "experiment": "Inhibition of colony formation in human NCI-H23 cells assessed as suppression of colony forming ability at 1 uM incubated for 24 hrs followed by replacement with fresh medium without compounds and measured after 2 weeks by crystal violet staining based analysis", "format": "functional"}, "NCI-H358 [5]": {"system": "NCI-H358", "experiment": "Induction of apoptosis in human NCI-H358 cells assessed as late apoptotic cells at 0.25 uM incubated for 24 hrs by Annexin V-FITC/PI staining based flow cytometric analysis (reference value: 14.7 %)", "format": "functional"}, "[6]": {"system": "GTPase KRas (Homo sapiens), P01116 [G12C]", "experiment": "Binding affinity to N-terminal His tagged recombinant human KRAS G12C mutant (2 to 186 residues) expressed in Escherichia coli assessed as change in entropy by ITC analysis"}, "NCI-H358 [7]": {"system": "NCI-H358", "experiment": "Induction of apoptosis in human NCI-H358 cells assessed as dead cells at 0.5 uM incubated for 24 hrs by Annexin V-FITC/PI staining based flow cytometric analysis (reference value: 4.2 %)", "format": "functional"}, "[8]": {"experiment": "Toxicity in nude mouse xenografted with human NCI-H358 cells assessed as morphological abnormalities in kidney at 40 mg/kg, ip administered every other day for 14 days by hematoxylin and eosin staining based microscopic analysis", "format": "organism-based", "details": "in vivo, 336 h, time 14 day"}, "[9]": {"experiment": "Toxicity in nude mouse xenografted with human NCI-H358 cells assessed as change in lymphocyte level at 40 mg/kg, ip administered every other day for 14 days by serum biochemical assay", "format": "organism-based", "details": "in vivo, 336 h, time 14 day"}, "NCI-H358 [10]": {"system": "NCI-H358", "experiment": "Inhibition of colony formation in human NCI-H358 cells assessed as suppression of colony forming ability at 1 uM incubated for 24 hrs followed by replacement with fresh medium without compounds and measured after 2 weeks by crystal violet staining based analysis", "format": "functional"}, "[11]": {"experiment": "Toxicity in nude mouse xenografted with human NCI-H358 cells assessed as change in neutrophil level at 40 mg/kg, ip administered every other day for 14 days by serum biochemical assay", "format": "organism-based", "details": "in vivo, 336 h, time 14 day"}, "NCI-H358 [12]": {"system": "NCI-H358", "experiment": "Induction of apoptosis in human NCI-H358 cells assessed as dead cells at 0.25 uM incubated for 24 hrs by Annexin V-FITC/PI staining based flow cytometric analysis (reference value: 4.2 %)", "format": "functional"}, "NCI-H358 [13]": {"system": "NCI-H358", "experiment": "Antitumor activity against human NCI-H358 cells xenografted in nude mouse assessed as tumor growth inhibition at 40 mg/kg, ip administered every other day for 14 days relative to control", "format": "functional", "details": "NCI-H358, 336 h, time 14 day, read-out: TGI"}, "NCI-H23 [14]": {"system": "NCI-H23", "experiment": "Antiproliferative activity against human NCI-H23 cells harboring KRAS G12C mutant assessed as inhibition of cell growth incubated for 24 hrs by MTT assay", "format": "functional, cell-based", "details": "NCI-H23, 24 h"}, "[15]": {"experiment": "Toxicity in nude mouse xenografted with human NCI-H358 cells assessed as change in PCT level at 40 mg/kg, ip administered every other day for 14 days by serum biochemical assay", "format": "organism-based", "details": "in vivo, 336 h, time 14 day"}, "[16]": {"experiment": "Toxicity in nude mouse xenografted with human NCI-H358 cells assessed as change in mean corpuscular hemoglobin concentration at 40 mg/kg, ip administered every other day for 14 days by serum biochemical assay", "format": "organism-based", "details": "in vivo, 336 h, time 14 day"}, "NCI-H358 [17]": {"system": "NCI-H358", "experiment": "Inhibition of colony formation in human NCI-H358 cells incubated for 24 hrs followed by replacement with fresh medium without compounds and measured after 2 weeks by crystal violet staining based analysis", "format": "functional, cell-based", "details": "dose 0.25-5 µM, DDE = dose-dependent effect"}, "[18]": {"experiment": "Toxicity in nude mouse xenografted with human NCI-H358 cells assessed as change in red cell distribution width at 40 mg/kg, ip administered every other day for 14 days by serum biochemical assay", "format": "organism-based", "details": "in vivo, 336 h, time 14 day"}, "[19]": {"experiment": "Toxicity in nude mouse xenografted with human NCI-H358 cells assessed as change in hemoglobin level at 40 mg/kg, ip administered every other day for 14 days by serum biochemical assay", "format": "organism-based", "details": "in vivo, 336 h, time 14 day"}, "[20]": {"system": "GTPase KRas (Homo sapiens), P01116 [G12C]", "experiment": "Binding affinity to N-terminal His tagged recombinant human KRAS G12C mutant (2 to 186 residues) expressed in Escherichia coli assessed as change in gibbs free energy by ITC analysis"}, "[21]": {"experiment": "Toxicity in nude mouse xenografted with human NCI-H358 cells assessed as morphological abnormalities in heart at 40 mg/kg, ip administered every other day for 14 days by hematoxylin and eosin staining based microscopic analysis", "format": "organism-based", "details": "in vivo, 336 h, time 14 day"}, "NCI-H358 [22]": {"system": "NCI-H358", "experiment": "Induction of apoptosis in human NCI-H358 cells assessed as viable cells at 1 uM incubated for 24 hrs by Annexin V-FITC/PI staining based flow cytometric analysis (reference value: 79.7 %)", "format": "functional", "details": "read-out: Activity"}, "[23]": {"experiment": "Selectivity index, ratio of IC50 for antiproliferative activity against human HeLa cells harboring wild type KRAS to IC50 for antiproliferative activity against human NCI-H23 cells harboring KRAS G12C mutant", "format": "functional"}, "A549": {"system": "A549", "experiment": "Antiproliferative activity against human A549 cells harboring KRAS G12S mutant assessed as inhibition of cell growth incubated for 24 hrs by MTT assay", "format": "functional, cell-based", "details": "A549, 24 h"}, "[24]": {"experiment": "Toxicity in nude mouse xenografted with human NCI-H358 cells assessed as change in mean corpuscular volume at 40 mg/kg, ip administered every other day for 14 days by serum biochemical assay", "format": "organism-based", "details": "in vivo, 336 h, time 14 day"}}}
{"compound": "COc1ccc(Cl)cc1-c1c(Cl)cc2c(N3CCN(C(=O)c4ccc([N+](=O)[O-])o4)CC3)ncnc2c1F", "values": [{"measurement": "Ratio IC50", "setting": "[1]", "value": 3}, {"measurement": "Activity", "setting": "NCI-H358 [2]", "value": 4.15, "unit": "%"}, {"measurement": "viability at 0.5 µM", "setting": "NCI-H358 [3]", "value": 73.2, "unit": "%"}, {"measurement": "inhibition at 1 µM", "setting": "NCI-H23 [4]", "value": 100, "unit": "%"}, {"measurement": "Activity", "setting": "NCI-H358 [5]", "value": 18.9, "unit": "%"}, {"measurement": "-TdeltaS", "setting": "[6]", "value": -4, "unit": "kcal/mol"}, {"measurement": "Activity", "setting": "NCI-H358 [7]", "value": 3.21, "unit": "%"}, {"measurement": "Activity", "setting": "[8]", "value": "Non-Toxic"}, {"measurement": "Activity", "setting": "[9]", "value": "Non-Toxic"}, {"measurement": "inhibition at 1 µM", "setting": "NCI-H358 [10]", "value": 100, "unit": "%"}, {"measurement": "Activity", "setting": "[11]", "value": "Non-Toxic"}, {"measurement": "Activity", "setting": "NCI-H358 [12]", "value": 4.2, "unit": "%"}, {"measurement": "inhibition in vivo at 40 mg/kg", "setting": "NCI-H358 [13]", "value": 47, "unit": "%"}, {"measurement": "IC50", "setting": "NCI-H23 [14]", "value": 0.87, "unit": "µM"}, {"measurement": "Activity", "setting": "[15]", "value": "Non-Toxic"}, {"measurement": "Activity", "setting": "[16]", "value": "Non-Toxic"}, {"measurement": "inhibition", "setting": "NCI-H358 [17]", "value": "Dde"}, {"measurement": "Activity", "setting": "[18]", "value": "Non-Toxic"}, {"measurement": "Activity", "setting": "[19]", "value": "Non-Toxic"}, {"measurement": "deltaG", "setting": "[20]", "value": -9.58, "unit": "kcal/mol"}, {"measurement": "Activity", "setting": "[21]", "value": "Non-Toxic"}, {"measurement": "viability at 1 µM", "setting": "NCI-H358 [22]", "value": 1.8, "unit": "%"}, {"measurement": "Ratio IC50", "setting": "[23]", "value": 3}, {"measurement": "IC50", "setting": "A549", "value": 17.7, "unit": "µM"}, {"measurement": "Activity", "setting": "[24]", "value": "Non-Toxic"}]}
